This is an account of results in PMC5727165, “A switch in nucleotide affinity governs activation of the Src and Tec family kinases” (Scientific Reports, 2017).

In test [1] the target is T1, Src^32KΔC L255A (Mus musculus, UniProt P05480, L257A).
T1 construct: mouse Src^85-523 (Src^32KΔC); GST (cleaved yes); made in house; host or cells: baculovirus-infected Sf9 insect cells
The experiment in a line: Differential scanning fluorimetry (thermal stability vs nucleotide concentration). The class given is binding. The settings on record: Src^32KΔC L255A non-phosphorylated; DSF. An excerpt:
Figure 3 An allosteric switch triggers nucleotide exchange. (a) Hydrophobic stack conservation in Src family kinases. The table illustrates the amino acid identity at each of the three positions in the hydrophobic stack in addition to the invariant tryptophan (Trp260 in Src) for all Src family kinase members. The positions are presented according to their N- to C-terminal order in the primary sequences. Where it was not possible to unambiguously determine the identity of the amino acid contributed by the SH2-kinase variable linker (V3), the residue is denoted by a question mark. (b) Small angle X-ray scattering of Itk^32K L351A (black). The scattering curve for wild type Itk^32K (cyan) is overlaid for comparison. […] (c) Rigid body modelling of Itk^32K L351A and fit to ab initio molecular envelope. Displacement of both the SH3 and SH2 domains is required for a good fit to the experimental scattering curve. (d) Determination of the binding constants of Itk^32K L351A for nucleotides by fluorescence anisotropy. […] (e) Determination of the thermal stabilities and relative binding affinities of non-phosphorylated Src^32KΔC L255A for nucleotides by differential scanning fluorimetry. […] TEXT PRINTED IN THE PICTURE: (d) Mant-ADP: Itk^32K L351A (non-phos) Kd (μM): 21.0 ± 2.1 | (d) Mant-ATP: Itk^32K L351A (non-phos) Kd (μM): 31.7 ± 2.7 | (e) ADP: Src^32KΔC L255A (non-phos) [nuc]1/2 (μM): 310 ± 20; Src^32KΔC L255A (non-phos) Tm^max (°C): 52.9; Src^32KΔC L255A (non-phos) ΔTm^max (°C): + 6.8 | (e) ATP: Src^32KΔC L255A (non-phos) [nuc]1/2 (μM): 100 ± 10; Src^32KΔC L255A (non-phos) Tm^max (°C): 54.2; Src^32KΔC L255A (non-phos) ΔTm^max (°C): + 8.1 | (e) apo: Src^32KΔC L255A (non-phos) Tm^max (°C): 46.1
Due to limiting protein concentrations, we were unable to obtain a binding curve by fluorescence anisotropy, so we instead used thermal stability measurements to investigate its nucleotide-binding properties. Determination of accurate binding constants from thermal stability measurements requires knowledge of the enthalpy of unfolding. However, for a given protein, the enthalpy of unfolding is independent of the ligand being tested, so comparison of the concentrations of nucleotide required for half maximal stabilisation is valid.
(§1) Thermal stabilities as a function of nucleotide concentration were measured by differential scanning fluorimetry (DSF). Samples contained 0.1 mg/ml protein in 50 mM Tris pH 7.5, 150 mM NaCl, 1 mM TCEP, and 5 mM MgCl2 with ADP, ATP, or AMPPNP concentrations ranging from 0–16 mM. Samples were measured in triplicate using a BioRad iQ™5 Multicolor Real-Time PCR Detection System. For detection of phosphorylated protein, samples were diluted and 1 ng and 15 ng were loaded to SDS-PAGE for Src and Itk proteins, respectively. Phosphorylation was measured by immunoblot.
A general note: Differential scanning fluorimetry follows unfolding on heating by fluorescence.

Test [2] concerns the target T2, Src^32KΔC (Mus musculus, UniProt P05480).
T2 construct: mouse Src^85-523 (Src^32KΔC); GST (cleaved yes); made in house; host or cells: baculovirus-infected Sf9 insect cells
Described as above. The conditions noted are these: vs AMPPNP. Type of test: binding.
From the text: as §1, with “Having observed that Itk^32K binds and is stabilised by ADP in the absence of a C-terminal tail, we investigated whether the C-terminal tail of Src influences its nucleotide binding or conformation in vitro, using a construct of Src lacking its C-tail (Src^32KΔC) and a SH2 domain mutant of Src that is incapable of binding phosphotyrosine peptides (Src^32K R175L, Supplementary Fig. 3a,b)[39]. […] Thermal stability measurements support the stabilisation of Src^32KΔC by ADP (Supplementary Fig. 6a). Thermal” for “Thermal”

`Nc1ncnc2c1ncn2[C@@H]1O[C@H](COP(=O)(O)OP(=O)(O)O)[C@@H](O)[C@H]1O` [ADP]: in test [1], the “Tm^max” value is 52.9 °C and the “[nuc]1/2 (nucleotide concentration for half maximal stabilisation)” value was found to be 310 ± 20 µM. For the same compound, in test [2], the “thermal stabilisation compared with other nucleotides” value is reported as “higher thermal stability”.
